Laboratory results published in patent US11304956B2, “Use of 7-bromo-5-(O-chlorophenyl)-3-propoxy-1,2-dihydro-3H-1,4-benzodiazepin-2-one for inhibition of neuropathic pain and seizures of different etiology” (priority 2016, dated 2022).

How the values were obtained:
[1] = system: thermal tail flick test in rats; test: Model of thermal stimulation (tail-flick); assay type: in vivo; details: n=10
From the text: The problem was solved by experimental study of the antinociceptive action of the test compound 1 on the model of NP in rats and on the model of pain with the participation of central mechanisms, in particular, thermal tail flick test in rats. Based on the available data on the positive response of constant pain to anticonvulsants in the acute and paroxysmal phase and considering structure 1, we performed an evaluation of the anticonvulsant action of the compound on models of pentamethylenetetrazol-induced convulsions and seizures caused by maximal electroshock (MES). We have taken into account the possible side reaction (ulcerogenic effect) of the compound in experimental animals, expressed in the formation of defects in the mucous membrane of the gastrointestinal tract or in provocation of already existing peptic ulcer relapses. The probability of ulcers formation of medicinal origin is especially high during administration of non-steroidal anti-inflammatory drugs in high doses and in combination with their long-term use in the form of tablets.
A more pronounced effect was after parenteral administration (see Table 2). Control: solvent (twin, distilled water, pH-corrector). Results of the study of Compound 1 and ketorolac analgesic effects on the model of thermal stimulation (tail-flick) as degree of pain sensitivity threshold increase in relation to the initial level (%), n=10, are given in Table 2.

gastric mucosa [2] = test: Ulcerogenic effect, subchronic experiment (4 days intragastric); assay type: in vivo, rats; details: 50 mg/kg intragastrically for 4 days
Experimental: The disadvantage of most analgesics is the fact that they have ulcerogenic effect that interferes with their long-term use. We have studied this side effect of Compound 1 in acute and subchronic experiments. In the first scheme, the compound in the form of an aqueous suspension (Tween-80) was administered in single dose intragastrically to rats, which had previously been deprived of food for 16 hours with free access to water. After 3 hours, the animals were euthanized with a cervical dislocation, then, after dissection of the abdominal cavity, stomachs were ejected and washed in isotonic sodium chloride solution to take out the contents. Damage of stomach was determined visually. In the second scheme, the compound was administered intragastrically for 4 days, after that the extent of the damaging effect on the stomach was determined, as in the previous experiment.
(§1) Evaluation of ulcerogenic action was carried out on a 4-score scale:
(§2) 0 score—no damage; 0.5 score—hyperemia (blood vessels overflow)
(§3) 1 score—single minor lesions (1-3 point hemorrhages or small ulcers)
(§4) 2 score—multiple (more than 3) lesions (erosions, pinpoint hemorrhages) or 1 large ulcer
(§5) 3 score—significant and massive damages (erosions, hemorrhages) of the gastric mucosa with significant size (diameter up to 4 mm)
(§6) 4 score—gross injuries (massive hemorrhages, erosions, perforations) that cover the entire surface of the gastric mucosa.
(§7) The average multiplicity index of damage to the gastric mucosa (the number of ulcers per animal) and the severity of the damage (in scores) were determined.
Compound 1 was administered over a wide dose range—in acute studies—50, 250, 500 and 1000 mg/kg. For the subchronic experiment, the compound was used at a dose of 50 mg/kg.
We also determined the indexes of gastrotoxicity of gastric mucosa under conditions of repeated intragastral administration (for 4 days at a dose of 50 mg/kg). […] The average severity in this group was of 1.4±0.27 score, and the multiplicity was of 1.9±0.64 ulcers per animal. This also indicates the absence of a gastrotoxic effect of this compound on the stomach.

[3] = system: pentylenetetrazole-induced convulsions; test: Pentylenetetrazole-induced seizures; assay type: in vivo, non-linear male mice; details: Mus musculus, sc; mice; pentylenetetrazole 120 mg/kg subcutaneously; interval (0.83-0.97) printed on the next line; read-out: Anticonvulsive activity (ED50), Pentylenetetrazole
From the text: In many cases, the presence of anticonvulsant (antiepileptic) effect of the compounds correlates with analgesic properties on corresponding models of neuralgia. As a general step is a primary screening of new anticonvulsant compounds on rodents with the help of pentylenetetrazole test and MES (maximal electroshock seizures) as they have a qualitative difference in development and manifestations of seizures. It is believed that the compound ability to prevent the MES-induced seizures is connected with impulse spread inhibition throughout the central nervous system. It is believed that the ability to prevent the MES-induced seizures development indicates the potential efficacy of the compound in the preventing propagation of a pulse along the neural tissue (see Tompson E. Medicines. Bioscreening/Under the editorship of A. V. Stefanova.-K.: Avitsenna, 1998.—250 p.).
The experiments were performed on non-linear male mice weighing 19-29 g. Pentylenetetrazole was administered subcutaneously in the cervical region of the back. […]
For MES-induced seizures experimental animals were exposed to electric stimulation through the corneal electrodes (50 Hz, 50 mA for mice during 0.2 s). The number of animals with the maximum tonic extension of the hind limbs, which occurs in almost 100% of the animals in the control group, was calculated. […]

gastric mucosa [4] = test: Ulcerogenic effect, chronic experiment (28 days intragastric); assay type: in vivo, rats; details: 0.5 mg/kg intragastrally for 28 days, n = 14
Experimental: as §1, §2, §3, §4, §5, §6, §7
(§8) To determine the safety of this compound in a chronic trial during long-term administration, it was administered to rats for 28 days at a dose close to ED50 by analgesic effect (0.5 mg/kg).
The data presented indicate that there is no serious damage to the stomach from the test compound, even when administered at very high doses, several orders higher than the average effective doses, and which are close to the upper limit of permitted doses that can be administered to rats once. Therefore, at the next stage it became reasonable to determine the effect of Compound 1 on the stomach after prolonged use (28 days) in an average effective dose of 0.5 mg/kg.

[5] = ED50 by analgesic effect (preliminary studies / literature data); assay type: in vivo; details: according to preliminary studies
Experimental: After oral administration of Compound 1 and ketorolac at a dose of 3 mg/kg (which is ED50 according to the literature data for ketorolac), the degree of analgesic effect of the compound exceeded the effect of reference drug both by strength and duration.
as §8

Structure (SMILES): CCCOC1N=C(c2ccccc2Cl)c2cc(Br)ccc2NC1=O (centres unmarked) [Compound 1, 7-bromo-5-(o-chlorophenyl)-3-propoxy-1,2-dihydro-3H-1,4-benzodiazepin-2-one]
- Degree of pain sensitivity threshold increase in relation to the initial level ([1]; 0.5 mg/kg intraperitoneally, 1 hour): +27.4%
- Degree of pain sensitivity threshold increase in relation to the initial level ([1]; 0.5 mg/kg intraperitoneally, 2 hours): +38.4%
- Degree of pain sensitivity threshold increase in relation to the initial level ([1]; 0.5 mg/kg intraperitoneally, 4 hours): +42.3%
- Degree of pain sensitivity threshold increase in relation to the initial level ([1]; 0.5 mg/kg intraperitoneally, 6 hours): +34.9%
- Degree of pain sensitivity threshold increase in relation to the initial level ([1]; 0.5 mg/kg orally, 1 hour): +13.2%
- Degree of pain sensitivity threshold increase in relation to the initial level ([1]; 0.5 mg/kg orally, 2 hours): +22.4%
- Degree of pain sensitivity threshold increase in relation to the initial level ([1]; 0.5 mg/kg orally, 4 hours): +21.7%
- Degree of pain sensitivity threshold increase in relation to the initial level ([1]; 0.5 mg/kg orally, 6 hours): +8.77%
- Degree of pain sensitivity threshold increase in relation to the initial level ([1]; 3 mg/kg orally, 1 hour): +60.7%
- Degree of pain sensitivity threshold increase in relation to the initial level ([1]; 3 mg/kg orally, 2 hours): +83.3%
- Degree of pain sensitivity threshold increase in relation to the initial level ([1]; 3 mg/kg orally, 4 hours): +65.2%
- Degree of pain sensitivity threshold increase in relation to the initial level ([1]; 3 mg/kg orally, 6 hours): +39.4%
- Macroscopic examination of the gastric mucosa (gastric mucosa [2]): insignificant decrease in the folding of the gastric mucosa and a rather distinct decrease in the amount of mucus
- Multiplicity (gastric mucosa [2]; n=10): 1.9±0.64 ulcers per animal
- Number of animals with lesions of the gastric mucosa, score 1 (gastric mucosa [2]; n=10): 6
- Number of animals with lesions of the gastric mucosa, score 2 (gastric mucosa [2]; n=10): 5
- Number of animals with lesions of the gastric mucosa, score 3 (gastric mucosa [2]; n=10): 0
- Number of animals with lesions of the gastric mucosa, score 4 (gastric mucosa [2]; n=10): 0
- Average severity (gastric mucosa [2]; n=10, 4-score scale): 1.4±0.27 score
- ED50 [3]: 0.91 mg/kg
- Number of animals with different degrees lesions of the gastric mucosa, score 1 (gastric mucosa [4]): 4
- Number of animals with different degrees lesions of the gastric mucosa, score 3 (gastric mucosa [4]): 0
- Number of animals with different degrees lesions of the gastric mucosa, score 4 (gastric mucosa [4]): 0
- The multiplicity of damage (gastric mucosa [4]): 0.5±0.23
- Average score (gastric mucosa [4]; 4-score scale): 0.4±0.17
- ED50 [5]: 0.5 mg/kg
